Values of other authors in patent US20130204238A1, “COMBINATION THERAPY” (FOLLICA, INC, priority 2010, published 2013).

Molecular target: GSK3β (Homo sapiens, UniProt P49841)
Details: compared with other indirubin derivatives

Sequence of GSK3β (P49841 whole entry, species assumed): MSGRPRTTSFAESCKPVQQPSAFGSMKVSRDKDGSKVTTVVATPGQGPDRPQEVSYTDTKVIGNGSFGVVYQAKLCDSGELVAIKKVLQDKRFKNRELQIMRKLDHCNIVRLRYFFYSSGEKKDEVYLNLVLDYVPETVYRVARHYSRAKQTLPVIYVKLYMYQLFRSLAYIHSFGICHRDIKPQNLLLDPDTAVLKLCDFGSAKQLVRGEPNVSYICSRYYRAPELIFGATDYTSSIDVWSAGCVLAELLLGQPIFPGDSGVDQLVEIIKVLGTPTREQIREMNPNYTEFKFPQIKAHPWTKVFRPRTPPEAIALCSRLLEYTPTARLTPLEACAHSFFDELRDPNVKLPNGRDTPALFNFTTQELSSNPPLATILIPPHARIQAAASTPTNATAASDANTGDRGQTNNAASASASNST

| Molecule | pharmacological properties | toxicity |
| --- | --- | --- |
| indirubin 3′-monoxime | better pharmacological properties |  |
| O=C1Nc2ccc(Cl)cc2/C1=C1/Nc2ccccc2C1=O [5-chloroindirubin] | better pharmacological properties | reduced toxicity |
